Our source for the EC50 and IC90 values is patent publication US20240228488A1 (TAKEDA PHARMACEUTICAL COMPANY LIMITED, priority 2021, published 2024).

In assay [1] the target is human activated kallikrein enzyme (Homo sapiens, UniProt P03952). The assay can be described thus: Plasma kallikrein inhibition, fluorogenic PFR-AMC substrate, 500 pM activated kallikrein format. Particulars: 500 pM activated kallikrein, 300 uM PFR-AMC, 30 min preincubation, 10 min reaction; read-out: Primary Dose Response Assay: Average EC50. It is filed as biochemical. Summed up:
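500 pM enz + cpd, 30 min RT preinc; start w/ PFR-AMC 300 uM; 10 min RT; Ex380/Em460. Buffer: Tris 20 mM pH 7.5, EDTA 1 mM, NaCl 150 mM, PEG-400 0.1%, Triton 0.1%. EC50.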

A further assay concerns the target T1, plasma kallikrein (Homo sapiens, UniProt P03952).
T1 construct: from tissue
Put plainly: Neat human plasma assay, FXIIa contact pathway-activated, PFR-AMC substrate. It is filed as biochemical. Particulars: citrated human plasma 78% final, 10 nM human FXIIa, 100 μM PFR-AMC; read-out: Human Plasma Assay: IC90. Summed up: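 Citrated human plasma (78% final) with compound, contact-activated by 10 nM human FXIIa in pKal buffer pH 7.5, with 100 μM PFR-AMC. Fluorescence (360/480 nm) followed 5 min at room temperature; rates versus concentration fitted by 4-parameter equation for IC50/IC90.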

pEC50: −log10 of the molar value.

T1 sequence (P03952 391-638 limits assumed): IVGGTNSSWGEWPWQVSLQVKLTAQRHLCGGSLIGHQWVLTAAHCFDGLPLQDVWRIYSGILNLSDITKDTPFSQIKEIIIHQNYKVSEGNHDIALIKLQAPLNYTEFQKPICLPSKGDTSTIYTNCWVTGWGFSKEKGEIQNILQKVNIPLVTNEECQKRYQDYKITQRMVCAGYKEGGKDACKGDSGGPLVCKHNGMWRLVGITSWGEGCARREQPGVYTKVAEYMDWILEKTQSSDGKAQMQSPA
T1 sequence (P03952 20-390 partner limits assumed): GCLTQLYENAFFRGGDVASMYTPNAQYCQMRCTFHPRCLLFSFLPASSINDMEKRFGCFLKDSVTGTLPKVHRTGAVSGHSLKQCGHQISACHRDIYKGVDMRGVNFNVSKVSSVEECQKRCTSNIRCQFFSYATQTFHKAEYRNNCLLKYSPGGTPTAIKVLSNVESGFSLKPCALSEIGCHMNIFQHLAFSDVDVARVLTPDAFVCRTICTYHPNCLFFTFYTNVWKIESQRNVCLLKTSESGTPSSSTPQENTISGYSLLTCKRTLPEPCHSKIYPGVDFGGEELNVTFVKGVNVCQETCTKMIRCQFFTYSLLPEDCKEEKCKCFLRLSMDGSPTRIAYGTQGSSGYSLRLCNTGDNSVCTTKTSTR
human activated kallikrein enzyme, sequence (P03952 391-638 limits assumed): as the sequence (P03952 391-638 limits assumed) above
human activated kallikrein enzyme, sequence (P03952 20-390 partner limits assumed): as the sequence (P03952 20-390 partner limits assumed) above

For the compound `Cc1ccnc([C@H]2C[C@@H]2C(=O)Nc2ncc(F)c(N(C)Cc3cn4cc(C5CC5)cc(N5CC(=O)NC5=O)c4n3)n2)n1` (racemic) [Example 516, rac-(1S*,2S*)-N-(4-(((6-cyclopropyl-8-(2,4-dioxoimidazolidin-1-yl)imidazo[1,2-a]pyridin-2-yl)methyl)(methyl)amino)-5-fluoropyrimidin-2-yl)-2-(4-methylpyrimidin-2-yl)cyclopropane-1-carboxamide], the pEC50 (as a rule, −log10 of the EC50, conventionally taken in molar units) in assay [1] is > 9.00. Moreover, the IC90 – broadly, the point of the concentration-response curve where the effect stands at 90% – at plasma kallikrein was < 0.4 µM.
In the same order, the values of `CN1C(=O)CN(c2cc(C3CC3)cn3cc(CNc4cc(NC(=O)[C@H]5C[C@@H]5c5nccc(C(F)F)n5)ncn4)nc23)C1=O` (racemic) [Example I-164, rac-(1S*,2S*)-N-(6-(((6-cyclopropyl-8-(3-methyl-2,4-dioxoimidazolidin-1-yl)imidazo[1,2-a]pyridin-2-yl)methyl)amino)pyrimidin-4-yl)-2-(4-(difluoromethyl)pyrimidin-2-yl)cyclopropane-1-carboxamide] are 8.00 to 9.00 and 0.4 to 1.5 µM.
In the same order, the values of `Cc1csc([C@H]2C[C@@H]2C(=O)Nc2cc(NCc3cn4cc(C5CC5)cc(N5CC(=O)N(C)C5=O)c4n3)ncn2)n1` (racemic) [Example 446, rac-(1S*,2S*)—N-(6-(((6-cyclopropyl-8-(3-methyl-2,4-dioxoimidazolidin-1-yl)imidazo[1,2-a]pyridin-2-yl)methyl)amino)pyrimidin-4-yl)-2-(4-methylthiazol-2-yl)cyclopropane-1-carboxamide] are > 9.00 and 0.4 to 1.5 µM.
In the same order, the values of `CN1C(=O)CCN(c2cc(C3CC3)cn3cc(CNc4cc(NC(=O)[C@H]5C[C@@H]5c5cccc(Cl)c5)ncn4)nc23)C1=O` [Example I-194, (1S,2S)-2-(3-chlorophenyl)-N-(6-(((6-cyclopropyl-8-(3-methyl-2,4-dioxotetrahydropyrimidin-1(2H)-yl)imidazo[1,2-a]pyridin-2-yl)methyl)amino)pyrimidin-4-yl)cyclopropane-1-carboxamide] are > 9.00 and 1.5 to 10 µM.
With `Cc1ccnc([C@@]2(F)C[C@@H]2C(=O)Nc2cc(NCc3cn4cc(C5CC5)cc(N5CC(=O)N(C)C5=O)c4n3)ncn2)n1` (racemic) [Example 496, rac-(1S*,2S*)-N-(6-(((6-cyclopropyl-8-(3-methyl-2,4-dioxoimidazolidin-1-yl)imidazo[1,2-a]pyridin-2-yl)methyl)amino)pyrimidin-4-yl)-2-fluoro-2-(4-methylpyrimidin-2-yl)cyclopropane-1-carboxamide], the pEC50 in assay [1] was > 9.00. Moreover, the IC90 at plasma kallikrein is < 0.4 µM.
In the same order, the values of `COCc1nc(NC(=O)[C@H]2C[C@@H]2c2nccc(C)n2)cc(OCc2cn3cc(C4CC4)cc(N4CC(=O)N(C)C4=O)c3n2)n1` [Example 551, (1S,2S)-N-(6-((6-cyclopropyl-8-(3-methyl-2,4-dioxoimidazolidin-1-yl)imidazo[1,2-a]pyridin-2-yl)methoxy)-2-(methoxymethyl)pyrimidin-4-yl)-2-(4-methylpyrimidin-2-yl)cyclopropane-1-carboxamide] are > 9.00 and 0.4 to 1.5 µM.
`O=C(Nc1cc(NCc2cn3cc(C4CC4)cc(N4CCNCC4=O)c3n2)ncn1)[C@H]1C[C@@H]1c1cccc(Cl)c1` [Example I-647, (1S,2S)-2-(3-chlorophenyl)-N-(6-(((6-cyclopropyl-8-(2-oxopiperazin-1-yl)imidazo[1,2-a]pyridin-2-yl)methyl)amino)pyrimidin-4-yl)cyclopropane-1-carboxamide]: in assay [1], the negative-log EC50 (pEC50) is > 9.00. For the same compound, the IC90 on plasma kallikrein fell in the range of 0.4 to 1.5 µM.
As for `Cc1ccnc([C@H]2C[C@@H]2C(=O)Nc2cc(NCc3cn4cc(C5CC5)cc(N5CC(=O)NC5=O)c4n3)ncn2)n1` (racemic) [Example 392, rac-(1S*,2S*)-N-(6-(((6-cyclopropyl-8-(2,4-dioxoimidazolidin-1-yl)imidazo[1,2-a]pyridin-2-yl)methyl)amino)pyrimidin-4-yl)-2-(4-methylpyrimidin-2-yl)cyclopropane-1-carboxamide], in assay [1], the negative logarithm of the EC50 (pEC50) was > 9.00. For the same compound, the IC90 at plasma kallikrein is 0.4 to 1.5 µM.
On the same counts, the results for `CC(=O)N(C)c1cc(C2CC2)cn2cc(CNc3ccnc(NC(=O)[C@H]4C[C@@H]4c4cccc(Cl)c4)c3)nc12` [Example 139, (1S,2S)-2-(3-chlorophenyl)-N-(4-(((6-cyclopropyl-8-(N-methylacetamido)imidazo[1,2-a]pyridin-2-yl)methyl)amino)pyridin-2-yl)cyclopropane-1-carboxamide] are > 9.00 and 0.4 to 1.5 µM.
In the same order, the values of `N#CCCc1cc(C2CC2)cn2cc(CNc3ccnc(NC(=O)[C@H]4C[C@@H]4c4cccc(Cl)c4)c3)nc12` (racemic) [Example 87, rac-(1S*,2S*)-2-(3-chlorophenyl)-N-(4-(((8-(2-cyanoethyl)-6-cyclopropylimidazo[1,2-a]pyridin-2-yl)methyl)amino)pyridin-2-yl)cyclopropane-1-carboxamide] are 8.00 to 9.00 and 10 to 48 µM.
With `Cc1ccnc([C@H]2C[C@@H]2C(=O)Nc2cc(OCc3cn4cc(C5CC5)ccc4n3)cnn2)n1` [Example 568, (1S,2S)-N-(5-((6-cyclopropylimidazo[1,2-a]pyridin-2-yl)methoxy)pyridazin-3-yl)-2-(4-methylpyrimidin-2-yl)cyclopropane-1-carboxamide], in assay [1], the pEC50 is > 9.00. On plasma kallikrein, the IC90 was in the range of 1.5 to 10 µM.
On the same counts, the results for `Cc1ccnc([C@H]2C[C@@H]2C(=O)Nc2nccc(N3C[C@@H](O)C[C@@H]3c3cn4cc(C5CC5)cc(N5CC(=O)N(C)C5=O)c4n3)n2)n1` (relative stereo) [Example 541, rac-(1S*,2S*)—N-(4-((2R,4S)-2-(6-cyclopropyl-8-(3-methyl-2,4-dioxoimidazolidin-1-yl)imidazo[1,2-a]pyridin-2-yl)-4-hydroxypyrrolidin-1-yl)pyrimidin-2-yl)-2-(4-methylpyrimidin-2-yl)cyclopropane-1-carboxamide] are > 9.00 and 0.4 to 1.5 µM.
`Cc1ccnc([C@H]2C[C@@H]2C(=O)Nc2cc(N[C@H](C)c3cn4cc(C5CC5)cc(S(C)(=O)=O)c4n3)nc(C)n2)n1` [Example 361, (1S,2S)-N-(6-(((R)-1-(6-cyclopropyl-8-(methylsulfonyl)imidazo[1,2-a]pyridin-2-yl)ethyl)amino)-2-methylpyrimidin-4-yl)-2-(4-methylpyrimidin-2-yl)cyclopropane-1-carboxamide]: the pEC50 in assay [1] is > 9.00. In addition, the IC90 at plasma kallikrein lay in the range of 0.4 to 1.5 µM.
Consider `Cc1cc(N2CC(=O)N(C)C2=O)c2nc([C@@H](C)Nc3cc(NC(=O)[C@H]4C[C@@H]4c4nccc(C)n4)nc(C)n3)cn2c1` [Example 434, (1S,2S)-N-(2-methyl-6-(((R)-1-(6-methyl-8-(3-methyl-2,4-dioxoimidazolidin-1-yl)imidazo[1,2-a]pyridin-2-yl)ethyl)amino)pyrimidin-4-yl)-2-(4-methylpyrimidin-2-yl)cyclopropane-1-carboxamide], for which, in assay [1], the pEC50 was > 9.00. The IC90 on plasma kallikrein was < 0.4 µM.
In the same order, the values of `CN1CCN(c2cc(C3CC3)cn3cc(CNc4cnnc(NC(=O)[C@H]5C[C@@H]5c5cccc(Cl)c5)c4)nc23)CC1` [Example 612, (1S,2S)-2-(3-chlorophenyl)-N-(5-(((6-cyclopropyl-8-(4-methylpiperazin-1-yl)imidazo[1,2-a]pyridin-2-yl)methyl)amino)pyridazin-3-yl)cyclopropane-1-carboxamide] are > 9.00 and 1.5 to 10 µM.
For the compound `CN(C)C(=O)c1cc(C2CC2)cn2cc(CNc3cc(NC(=O)[C@H]4C[C@@H]4c4cccc(Cl)c4)ncn3)nc12` [Example 299, 2-(((6-((1S,2S)-2-(3-chlorophenyl)cyclopropane-1-carboxamido)pyrimidin-4-yl)amino)methyl)-6-cyclopropyl-N,N-dimethylimidazo[1,2-a]pyridine-8-carboxamide], the pEC50 in assay [1] was > 9.00. Also, the IC90 at plasma kallikrein lay in the range of 0.4 to 1.5 µM.
As to `Cc1ccnc([C@H]2C[C@@H]2C(=O)Nc2cc(NCc3cn4cc(C5CC5)cc(N5CC(=O)N(COP(=O)(O)O)C5=O)c4n3)ncn2)n1` [Example 466, (3-(6-cyclopropyl-2-(((6-((1S,2S)-2-(4-methylpyrimidin-2-yl)cyclopropane-1-carboxamido)pyrimidin-4-yl)amino)methyl)imidazo[1,2-a]pyridin-8-yl)-2,5-dioxoimidazolidin-1-yl)methyl dihydrogen phosphate], the pEC50 in assay [1] is > 9.00. Besides, the IC90 at plasma kallikrein fell in the range of 1.5 to 10 µM.
In the same order, the values of `Cc1ccnc([C@H]2C[C@@H]2C(=O)Nc2cc(NCc3cn4cc(C5CC5)cc(-n5[nH]c(=O)n(C)c5=O)c4n3)ncn2)n1` (racemic) [Example 386, rac-(1S*,2S*)-N-(6-(((6-cyclopropyl-8-(4-methyl-3,5-dioxo-1,2,4-triazolidin-1-yl)imidazo[1,2-a]pyridin-2-yl)methyl)amino)pyrimidin-4-yl)-2-(4-methylpyrimidin-2-yl)cyclopropane-1-carboxamide] are 8.00 to 9.00 and 1.5 to 10 µM.
For `Cc1ccnc([C@H]2C[C@@H]2C(=O)Nc2cc(OCc3cn4cc(C5CC5)cc(N5CC(=O)N(CCO)C5=O)c4n3)ncn2)n1` (racemic) [Example 33, rac-(1S*,2S*)—N-(6-((6-cyclopropyl-8-(3-(2-hydroxyethyl)-2,4-dioxoimidazolidin-1-yl)imidazo[1,2-a]pyridin-2-yl)methoxy)pyrimidin-4-yl)-2-(4-methylpyrimidin-2-yl)cyclopropane-1-carboxamide], in assay [1], the pEC50 was > 9.00. The IC90 at plasma kallikrein was in the range of 0.4 to 1.5 µM.
